The data set is described as follows: Acute oral toxicity (50 % lethal dose) in mice. The conditions noted are these: mouse, in vivo, orally administered to mice, read-out: 50 % lethal dose (LD₅₀). Here is the method: Further, the benzothiazepine derivative (I) or a pharmacologically acceptable salt thereof has low toxicity and high safety. For example, when 2-(4-methoxyphenyl)-3-acetoxy-5-[2-(dimethylamino)ethyl]-8-chloro-2,3-dihydro-1,5-benzothiazepin-4(5H)-one·maleate is orally administered to mice, its 50 % lethal dose (LD₅₀) was about 800 mg/kg.

Results on 1 compound are retold here after patent EP0501442B1, “8-chloro-benzothiazepine-compound for prophylaxis and treatment of sequelae of cerebral neurocyte necrosis” (priority 1991, dated 1992).

As to `COc1ccc([C@@H]2Sc3cc(Cl)ccc3N(CCN(C)C)C(=O)[C@@H]2OC(C)=O)cc1` [(+)-cis-2-(4-methoxyphenyl)-3-acetoxy-5-[2-(dimethylamino)ethyl]-8-chloro-2,3-dihydro-1,5-benzothiazepin-4(5H)-one·maleate], the LD50 is around 800 mg/kg.
